Measured values from patent US9346820B2, “HIV-1 protease inhibitors having gem-di-fluoro bicyclic P2-ligands” (priority 2013, dated 2016).
Where two headings read alike, the source gives them in different places.

Key:
HIV-1GRL04810^RP18 = experiment: microbe, parasite or virus in culture; format: cell-based; conditions: for EC50: Human immunodeficiency virus 1, MT4, read-out: EC50 HIV-1GRL04810^RP18; for fold change of EC50 HIV-1GRL04810^RP18 vs HIV-1NL4-3: number in parentheses
Procedure: (§1) The susceptibility of HIV-1LAI to various drugs was determined as previously described with minor modifications. Briefly, MT-2 cells (10^4/ml) were exposed to 100 50% tissue culture infectious doses (TCID50) of HIV-1LAI in the presence or absence of various concentrations of drugs in 96-well microculture plates and were incubated at 37° C. for 7 days. After 100 μl of the medium was removed from each well, 3-(4,5-dimetylthiazol-2-yl)-2,5-diphenyltetrazolium bromide (MTT) solution (10 μl, 7.5 mg/ml in phosphate-buffered saline) was added to each well in the plate, followed by incubation at 37° C. for 2 h. […] All assays were performed in duplicate or triplicate. […] To determine the sensitivity of primary HIV-1 isolates to drugs, phytohemagglutinin-stimulated peripheral blood mononuclear cells (PHA-PBMC) (10^6/ml) were exposed to 50 TCID50 of each primary HIV-1 isolate and cultured in the presence or absence of various concentrations of drugs in 10-fold serial dilutions in 96-well microculture plates. In determining the drug susceptibility of certain laboratory HIV-1 strains, MT-4 cells were employed as target cells as previously described with minor modifications. In brief, MT-4 cells (10^5/ml) were exposed to 100 TCID50 of drug-resistant HIV-1 strains in the presence or absence of various concentrations of drugs and were incubated at 37° C. On day 7 of culture, the supernatants were harvested and the amounts of p24 Gag protein were determined by using a fully automated chemiluminescent enzyme immunoassay system (Lumipulse F: Fujirebio Inc., Tokyo). […] All assays were performed in duplicate or triplicate. PHA-PBMs were derived from a single donor in each independent experiment. Thus, for obtaining the data, three different donors were recruited.
(§2) The amounts of p24 were measured every two days for up to 7 days.

HIV-1GRL05010^RP10 = experiment: microbe, parasite or virus in culture; format: cell-based; conditions: for EC50: Human immunodeficiency virus 1, MT4, read-out: EC50 HIV-1GRL05010^RP10; for fold change of EC50 HIV-1GRL05010^RP10 vs HIV-1NL4-3: number in parentheses
Procedure: as §1, §2

HIV-1NL4-3 = experiment: p24 Gag production inhibition in MT-4 cells, wild-type laboratory strain; format: cell-based
Procedure: as §1

HIV-1ATV^R5μM = experiment: microbe, parasite or virus in culture; format: cell-based; conditions: for EC50: Human immunodeficiency virus 1, MT4, read-out: EC50 HIV-1ATV^R5μM; for fold change of EC50 HIV-1ATV^R5μM vs HIV-1NL4-3: number in parentheses
Procedure: as §1

HIV-1LPV^R5μM = experiment: microbe, parasite or virus in culture; format: cell-based; conditions: for EC50: Human immunodeficiency virus 1, MT4, read-out: EC50 HIV-1LPV^R5μM; for fold change of EC50 HIV-1LPV^R5μM vs HIV-1NL4-3: number in parentheses
Procedure: as §1

HIV-1APV^R5μM = experiment: microbe, parasite or virus in culture; format: cell-based; conditions: for EC50: Human immunodeficiency virus 1, MT4, read-out: EC50 HIV-1APV^R5μM; for fold change of EC50 HIV-1APV^R5μM vs HIV-1NL4-3: number in parentheses
Procedure: as §1

HIV-1SQV^R5μM = experiment: microbe, parasite or virus in culture; format: cell-based; conditions: for EC50: Human immunodeficiency virus 1, MT4, read-out: EC50 HIV-1SQV^R5μM; for fold change of EC50 HIV-1SQV^R5μM vs HIV-1NL4-3: number in parentheses
Procedure: as §1

HIV-1ERS104pre = experiment: p24 Gag production inhibition in PHA-PBMs, wild-type clinical isolate; format: cell-based
Procedure: All primary HIV-1 strains were passaged once or twice in 3-day-old phytohemagglutinin activated peripheral blood mononuclear cells (PHA-PBM), and the culture supernatants were stored at −80° C. until use.
as §1

in vitro = conditions: rat and monkey
Procedure: The BBB Kit™ was kept at −80° C. until thawing on day 0 of the experiments. Nutritional medium was added to both brain and blood sides of the wells. This solution consists of DMEM F-12 medium with FCS 10% v/v, heparin 100 μg/ml, basic fibroblast growth factor (bFGF) 1.5 ng/ml, insulin 5 μg/ml, transferrin 5 μg/ml, sodium selenite 5 ng/ml, hydrocortisone 500 nM and gentamycin 50 μg/ml. Fresh medium was added 3 hours after thawing following the manufacturer's instructions, and 24 hours later. The plates were incubated at 37° C. until day 4 of the experiment when the condition of astrocytes was checked under a light microscope. Following this, the integrity of the collagen-coated membrane was verified by the measurement of the transendothelial electrical resistance (TEER) using an ohmmeter provided by the manufacturer. […] Detailed information regarding the components of the BBB Kit as well as its mechanisms can be seen by accessing the manufacturer's website http://www.pharmacocell.co.jp/en/bbb/index_e.html.
Standard curves were generated for each compound on a light spectrophotometer as previously described. 100 μM of each compound was added to the luminal (blood side) of the wells, incubated at 37° C. for 30 minutes and then, the amount of drug that crossed the in vitro BBB was collected and measured under a light spectrophotometer at 230 nanometer absorbances.
Papp was calculated using the following mathematical formula: […]
This model (BBB Kit™) is thought to represent an in vitro BBB model for drug transport assays, permitting an adequate cross-talk of the cell lines involved and provide a way to test an apparent passage of small molecules across the BBB as previously described by Nakagawa et al. (41). […] The concentrations of each compound that permeated into the abluminal interface (termed “brain side”) were determined using a spectrophotometer, 30 min after the addition of each drug to the wells.
The mathematical formula used for the calculation of Papp is described in Materials and Methods.

[1] = test system: HIV-1GRL-04810^RP18, and HIV-1GRL-05010^RP10; experiment: p24 assay, the two GRL-selected variants taken together; format: cell-based; conditions: Human immunodeficiency virus 1, read-out: EC50 values against HIV-1GRL-04810^RP18 and HIV-1GRL-05010^RP10
Procedure: as §1

[2] = Human immunodeficiency virus 1, MT4, read-out: EC50 HIV-1NL4-3
[3] = Human immunodeficiency virus 1, read-out: EC50 HIV-1ERS104pre (X4)
[4] = Human immunodeficiency virus 1, MT4, MT-4 cells, p24 Gag endpoint, read-out: EC50 HIV-1NL4-3
[5] = Human immunodeficiency virus 1, PHA-PBMs, p24 Gag endpoint, read-out: EC50 HIV-1ERS104pre (X4)

| Structure (SMILES) | EC50 (HIV-1GRL04810^RP18) [nM] | fold change of EC50 HIV-1GRL04810^RP18 vs HIV-1NL4-3 (HIV-1GRL04810^RP18) [fold] | EC50 (HIV-1GRL05010^RP10) [nM] | fold change of EC50 HIV-1GRL05010^RP10 vs HIV-1NL4-3 (HIV-1GRL05010^RP10) [fold] | EC50 (HIV-1NL4-3; [2]) [nM] | EC50 (HIV-1ATV^R5μM) [nM] | fold change of EC50 HIV-1ATV^R5μM vs HIV-1NL4-3 (HIV-1ATV^R5μM) [fold] | EC50 (HIV-1LPV^R5μM) [nM] | fold change of EC50 HIV-1LPV^R5μM vs HIV-1NL4-3 (HIV-1LPV^R5μM) [fold] | EC50 (HIV-1APV^R5μM) [nM] | EC50 (HIV-1SQV^R5μM) [nM] | fold change of EC50 HIV-1SQV^R5μM vs HIV-1NL4-3 (HIV-1SQV^R5μM) [fold] | EC50 (HIV-1ERS104pre; [3]) [nM] | Papp at 30 min, 100 μM (in vitro; Papp) [×10⁻⁶ cm/s] | Papp at 30 min, 100 μM (in vitro) [×10⁻⁶ cm/s] | EC50 [1] [nM] | EC50 (HIV-1NL4-3; [4]) [nM] | fold change of EC50 HIV-1APV^R5μM vs HIV-1NL4-3 (HIV-1APV^R5μM) [fold] | EC50 (HIV-1ERS104pre; [5]) [nM] |
| --- | --- | --- | --- | --- | --- | --- | --- | --- | --- | --- | --- | --- | --- | --- | --- | --- | --- | --- | --- |
| COC(=O)N[C@H](C(=O)N[C@@H](Cc1ccccc1)[C@@H](O)CN(Cc1ccc(-c2ccccn2)cc1)NC(=O)[C@@H](NC(=O)OC)C(C)(C)C)C(C)(C)C [ATV, Atazanavir] | 325 | 81 | 95 | 24 | 4.7 | > 1000 | > 250 | 33 | 8 | 660 ± 20 | > 1000 | > 250 | 2.1 | 15.4 |  |  |  |  |  |
| CC(C)CN(C[C@@H](O)[C@H](Cc1ccccc1)NC(=O)O[C@H]1CO[C@H]2OCC[C@H]21)S(=O)(=O)c1ccc(N)cc1 [DRV, darunavir] | 41 |  | 37 |  | 4 | 50 |  | 32 |  | 510 | 40 |  | 4 |  | 9.9 |  |  |  |  |
| COc1ccc(S(=O)(=O)N(CC(C)C)C[C@@H](O)[C@H](Cc2ccccc2)NC(=O)OC2CO[C@H]3OCC(F)(F)[C@@H]23)cc1 (some centres unmarked) [GRL-04810] | 33 | 66 | 29 | 58 |  | 20 | 36 | 30 | 66 | 430 | 130 | 260 |  | 47.8 |  | 29 to 39 | 0.5 | 860 | 2.3 |
| CC(C)CN(C[C@@H](O)[C@H](Cc1ccccc1)NC(=O)O[C@H]1CO[C@H]2OCC(F)(F)[C@H]21)S(=O)(=O)c1ccc(N)cc1 [GRL-05010] | 39 | 13 | 36 | 10 |  | 40 | 12 | 30 | 8 | 560 | 46 | 13 |  | 61.8 |  | 29 to 39 | 3.7 | 187 | 2.7 |
| CC(C)(C)NC(=O)[C@@H]1C[C@@H]2CCCC[C@@H]2CN1C[C@@H](O)[C@H](Cc1ccccc1)NC(=O)[C@H](CC(N)=O)NC(=O)c1ccc2ccccc2n1 [SQV, Saquinavir] | 32 | 1 | 36 | 1 | 37 | 460 | 12 | 25 | 1 | 90 | > 1000 | > 25 | 3.9 | 4.9 |  | 32 to 36 |  | 2 |  |
